Columns and labels:
Assay in all cases: relative viability (nuclei count vs DMSO), 5 days (fraction); higher = more cells survive
EKVX = tested on: EKVX
Summary of the method: (§1)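 One day after seeding in 1536-well plates, lung cancer cell lines were dosed by pin tool. Dosing was either single-drug or a fixed anchor-drug dose plus five library-drug doses (not always all listed) in √10 steps. After 5 days, nuclei were stained in one fix-and-stain step and counted on 4× images, and relative viability is the nuclei count of treated wells over that of vehicle wells, given as the median of duplicate plates.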

NCI-H3122 = tested on: NCI-H3122
Summary of the method: as §1

NCI-H1755 = tested on: NCI-H1755
Summary of the method: as §1

NCI-H1734 = tested on: NCI-H1734
Summary of the method: as §1

NCI-H1993 = tested on: NCI-H1993
Summary of the method: as §1

NCI-H1944 = tested on: NCI-H1944
Summary of the method: as §1

NCI-H1975 = tested on: NCI-H1975
Summary of the method: as §1

COR-L23 = tested on: COR-L23
Summary of the method: as §1

NCI-H2342 = tested on: NCI-H2342
Summary of the method: as §1

HCC-15 = tested on: HCC-15
Summary of the method: as §1

NCI-H1650 = tested on: NCI-H1650
Summary of the method: as §1

BEN = tested on: BEN
Summary of the method: as §1

HCC-827 = tested on: HCC-827
Summary of the method: as §1

COR-L 105 = tested on: COR-L 105
Summary of the method: as §1

HCC-78 = tested on: HCC-78
Summary of the method: as §1

LU99A = tested on: LU99A
Summary of the method: as §1

HARA = tested on: HARA
Summary of the method: as §1

NCI-H522 = tested on: NCI-H522
Summary of the method: as §1

NCI-H596 = tested on: NCI-H596
Summary of the method: as §1

201T = tested on: 201T
Summary of the method: as §1

LXF-289 = tested on: LXF-289
Summary of the method: as §1

SK-LU-1 = tested on: SK-LU-1
Summary of the method: as §1

HCC-366 = tested on: HCC-366
Summary of the method: as §1

CCCCCCCCCCCC1=C(O)C(=O)C=C(O)C1=O [Embelin] + N=C(N)NC(=N)NCCc1ccccc1 [Phenformin] (partner 250 µM)
relative viability (EKVX; first compound 0.08 µM): 0.245 | relative viability (EKVX; first compound 0.8 µM): 0.229 | relative viability (EKVX; first compound 2.53 µM): 0.205 | relative viability (EKVX; first compound 8 µM): 0.247 | relative viability (NCI-H3122; first compound 0.08 µM): 0.388 | relative viability (NCI-H3122; first compound 0.8 µM): 0.415 | relative viability (NCI-H3122; first compound 2.53 µM): 0.384 | relative viability (NCI-H3122; first compound 8 µM): 0.282 | relative viability (NCI-H1755; first compound 0.08 µM): 0.646 | relative viability (NCI-H1755; first compound 0.8 µM): 0.656 | relative viability (NCI-H1755; first compound 2.53 µM): 0.608 | relative viability (NCI-H1755; first compound 8 µM): 0.6 | relative viability (NCI-H1734; first compound 0.08 µM): 0.383 | relative viability (NCI-H1734; first compound 0.8 µM): 0.521 | relative viability (NCI-H1734; first compound 2.53 µM): 0.526 | relative viability (NCI-H1734; first compound 8 µM): 0.327 | relative viability (NCI-H1993; first compound 0.08 µM): 0.499 | relative viability (NCI-H1993; first compound 0.8 µM): 0.542 | relative viability (NCI-H1993; first compound 2.53 µM): 0.489 | relative viability (NCI-H1993; first compound 8 µM): 0.467 | relative viability (NCI-H1944; first compound 0.08 µM): 0.196 | relative viability (NCI-H1944; first compound 0.8 µM): 0.237 | relative viability (NCI-H1944; first compound 2.53 µM): 0.203 | relative viability (NCI-H1944; first compound 8 µM): 0.202 | relative viability (NCI-H1975; first compound 0.08 µM): 0.445 | relative viability (NCI-H1975; first compound 0.8 µM): 0.413 | relative viability (NCI-H1975; first compound 2.53 µM): 0.405 | relative viability (NCI-H1975; first compound 8 µM): 0.384 | relative viability (COR-L23; first compound 0.08 µM): 0.448 | relative viability (COR-L23; first compound 0.8 µM): 0.542 | relative viability (COR-L23; first compound 2.53 µM): 0.426 | relative viability (COR-L23; first compound 8 µM): 0.462 | relative viability (NCI-H2342; first compound 0.08 µM): 0.594 | relative viability (NCI-H2342; first compound 0.8 µM): 0.551 | relative viability (NCI-H2342; first compound 2.53 µM): 0.701 | relative viability (NCI-H2342; first compound 8 µM): 0.516 | relative viability (HCC-15; first compound 0.08 µM): 0.477 | relative viability (HCC-15; first compound 0.8 µM): 0.504 | relative viability (HCC-15; first compound 2.53 µM): 0.461 | relative viability (HCC-15; first compound 8 µM): 0.438 | relative viability (NCI-H1650; first compound 0.08 µM): 0.434 | relative viability (NCI-H1650; first compound 0.8 µM): 0.558 | relative viability (NCI-H1650; first compound 2.53 µM): 0.485 | relative viability (NCI-H1650; first compound 8 µM): 0.376 | relative viability (BEN; first compound 0.08 µM): 0.267 | relative viability (BEN; first compound 0.8 µM): 0.285 | relative viability (BEN; first compound 2.53 µM): 0.264 | relative viability (BEN; first compound 8 µM): 0.263 | relative viability (HCC-827; first compound 0.08 µM): 0.426 | relative viability (HCC-827; first compound 0.8 µM): 0.451 | relative viability (HCC-827; first compound 2.53 µM): 0.477 | relative viability (HCC-827; first compound 8 µM): 0.443 | relative viability (COR-L 105; first compound 0.08 µM): 0.582 | relative viability (COR-L 105; first compound 0.8 µM): 0.595 | relative viability (COR-L 105; first compound 2.53 µM): 0.446 | relative viability (COR-L 105; first compound 8 µM): 0.496 | relative viability (HCC-78; first compound 0.08 µM): 0.661 | relative viability (HCC-78; first compound 0.8 µM): 0.729 | relative viability (HCC-78; first compound 2.53 µM): 0.761 | relative viability (HCC-78; first compound 8 µM): 0.929 | relative viability (LU99A; first compound 0.08 µM): 0.856 | relative viability (LU99A; first compound 0.8 µM): 0.951 | relative viability (LU99A; first compound 2.53 µM): 0.942 | relative viability (LU99A; first compound 8 µM): 0.757 | relative viability (HARA; first compound 0.08 µM): 0.438 | relative viability (HARA; first compound 0.8 µM): 0.56 | relative viability (HARA; first compound 2.53 µM): 0.497 | relative viability (HARA; first compound 8 µM): 0.455 | relative viability (NCI-H522; first compound 0.08 µM): 0.722 | relative viability (NCI-H522; first compound 0.8 µM): 0.856 | relative viability (NCI-H522; first compound 2.53 µM): 0.674 | relative viability (NCI-H522; first compound 8 µM): 0.621 | relative viability (NCI-H596; first compound 0.08 µM): 0.743 | relative viability (NCI-H596; first compound 0.8 µM): 0.744 | relative viability (NCI-H596; first compound 2.53 µM): 1.03 | relative viability (NCI-H596; first compound 8 µM): 0.582 | relative viability (201T; first compound 0.08 µM): 0.432 | relative viability (201T; first compound 0.8 µM): 0.49 | relative viability (201T; first compound 2.53 µM): 0.482 | relative viability (201T; first compound 8 µM): 0.385 | relative viability (LXF-289; first compound 0.08 µM): 0.509 | relative viability (LXF-289; first compound 0.8 µM): 0.547 | relative viability (LXF-289; first compound 2.53 µM): 0.527 | relative viability (LXF-289; first compound 8 µM): 0.571 | relative viability (SK-LU-1; first compound 0.08 µM): 0.608 | relative viability (SK-LU-1; first compound 0.8 µM): 0.624 | relative viability (SK-LU-1; first compound 2.53 µM): 0.534 | relative viability (SK-LU-1; first compound 8 µM): 0.365 | relative viability (HCC-366; first compound 0.08 µM): 0.646 | relative viability (HCC-366; first compound 0.8 µM): 0.638 | relative viability (HCC-366; first compound 2.53 µM): 0.644 | relative viability (HCC-366; first compound 8 µM): 0.676

— the supplement of paper PMC10307832
